From publication PMC8155176, “Reversible modulation of circadian time with chronophotopharmacology” (Nature Communications, 2021)
Entries after “also recorded” stand apart in the source; their conditions may differ. Like-named read-outs stand apart in the source and are kept apart here.

Experiments:
[1] = target: T1, CKIα (Homo sapiens, UniProt P48729); test: In vitro kinase assay (Kinase Glo), CKIα; type: biochemical
T1 construct: purchased Invitrogen PV3850
Procedure: (§1) A stock solution of 7.4 mM in DMSO was prepared and thermally adapted by heating to c.a. 100 °C for 1 min. Two series of eight samples were prepared with consecutive three-time dilutions from the stock solution. One of the series (‘dark’ samples) was prepared in dark Eppendorf tube, the other series (‘light’ samples) was pre-irradiated with UV light (365 nm, UV lamp Spectroline, ENB-280/FE, 1 × 8 Watt) for 45 min. For compound 9, 1 mM solution in DMSO was thermally adapted by heating to 80 °C for 2 min and split into two vials. One vial was kept in the dark and the other was irradiated with green light (530 nm, 3x Nichia NCSG219B-V1, 3 × 550 mW, Sahlmann Photochemical Solutions) for 60 min. Both dark-kept and irradiated samples were subjected to 8-point 3-fold dilutions. All the solutions were applied to the well plate under a red lamp in the dark room in order to prevent ambient-light-induced photo-isomerization.
The assays were performed on a white, solid-bottom 384-well plates. The total volume for the reaction is 10.5 µl. Firstly, a solution of CKI and peptide was added to the bottom of the well (9 µL). Next, a corresponding solution of the compound (0.5 μL, final 5% DMSO) followed by 50 μM ATP solution (1 μL) were pipetted into the upper corners of each well. The enzymatic reaction was started by spinning down the plate (1800 x g, 2 min).
By employing this method, all reactions were started at the same time, minimizing variance between different samples. Incubation for 3 h at 30 °C or 2 h at 37 °C allowed for the enzymatic phosphorylation of the substrate peptide. As the reaction started, the wells with ‘light’ samples were irradiated with UV light or kept in dark in case of experiment with compound 9. ‘Dark’ (0 min pre-irradiation) wells were covered with an aluminum sticker from the beginning. After the incubation, 10 μL Kinase Glo® (Promega) was applied into the wells and the luminescent signal was recorded by a plate reader (BioTek Synergy H1 or Cytation).
The total volume for the reaction was 10.5 µl. The reaction mixture contained the following: for CKIδ, 4 ng/µl CKIδ (14-520, Eurofins), 50 µM peptide substrate RKKKAEpSVASLTSQCSYSS corresponding to human PER2 Lys659-Ser674, and CKI buffer (40 mM Tris, 10 mM MgCl2, 0.5 mM DTT, 0.1 mg/ml BSA, pH7.4); for CKIα, 1 ng/µl CKIα (PV3850, Invitrogen), 50 µM CKI peptide substrate (60547-1, Anaspec), and CKI buffer.
The data obtained from the in vitro kinase assay was analyzed using GraphPad software, in which the luminescence outcome is normalized. Normalization is done using a luminescent output of the control that contained high concentration of longdaysin (370 µM) as 100% inhibition and DMSO for 0% inhibition. In all graphs, a dose-response fit was used to obtain

[2] = Chemical stability under dark and irradiation conditions followed by LCMS; type: physicochemical; settings: 40 µM in kinase assay buffer or cell culture medium, dark, 365 nm 3 h, 400 nm 30 min
Procedure: LCMS traces of stability studies
Supplementary Figure 8. Chemical stability of compound 3 under dark and irradiation conditions followed by LCMS. All the samples were prepared as 40 µM solution in buffer or cell culture medium. ‘Buffer’ and ‘medium’ samples were injected immediately upon dissolving compound 3, ‘buffer_3h_dark’ was injected after 3 h of keeping the solution in dark, ‘buffer_3h_365nm’ after irradiation of the sample for 3 h with UV light in kinase assay buffer, and ‘medium_30min_400nm’ after 30 min of irradiation with 400 nm in cell culture medium. The trans-isomer was followed at the retention time of 10.41-10.47 min and the cis-isomer at the retention time of 8.84-8.90 min. Mass spectra of both isomers in different […]
(1 picture or pasted object on this page, not shown here)

[3] = target: T2, CKIδ (Homo sapiens, UniProt P48730); test: In vitro kinase assay (Kinase Glo), CKIδ; type: biochemical; settings: green light 530 nm vs dark
T2 construct: purchased Eurofins 14-520
T2 sequence (P48730 1-294 limits assumed): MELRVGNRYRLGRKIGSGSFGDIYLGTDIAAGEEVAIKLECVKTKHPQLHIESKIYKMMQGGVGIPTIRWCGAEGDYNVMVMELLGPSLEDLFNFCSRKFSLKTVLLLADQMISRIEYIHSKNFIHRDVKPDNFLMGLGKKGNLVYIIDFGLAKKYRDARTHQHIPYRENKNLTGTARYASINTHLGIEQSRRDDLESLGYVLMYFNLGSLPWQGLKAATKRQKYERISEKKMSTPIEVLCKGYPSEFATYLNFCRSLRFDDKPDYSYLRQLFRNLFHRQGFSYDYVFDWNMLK
Procedure: as §1, with “photo-isomerization. […]” for “photo-isomerization.”
By employing this method, all reactions were started at the same time, minimizing variance between different samples. […] After the incubation, 10 μL Kinase Glo® (Promega) was applied into the wells and the luminescent signal was recorded by a plate reader (BioTek Synergy H1 or Cytation). […]
The data obtained from the in vitro kinase assay was analyzed using GraphPad software, in which the luminescence outcome is normalized. […]

[4] = thermally adapted trans-isomer kept in the dark, read-out: CKIα IC50, dark

T1 sequence (P48729 whole entry): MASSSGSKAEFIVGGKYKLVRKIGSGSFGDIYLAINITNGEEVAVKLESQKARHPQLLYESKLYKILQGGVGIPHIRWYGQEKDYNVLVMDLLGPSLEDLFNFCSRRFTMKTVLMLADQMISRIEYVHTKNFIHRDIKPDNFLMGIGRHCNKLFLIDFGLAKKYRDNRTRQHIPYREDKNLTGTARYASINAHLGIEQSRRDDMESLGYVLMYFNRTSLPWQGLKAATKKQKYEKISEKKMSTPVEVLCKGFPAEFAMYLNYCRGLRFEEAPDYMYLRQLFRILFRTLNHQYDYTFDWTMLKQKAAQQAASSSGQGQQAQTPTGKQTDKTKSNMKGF

IC50 ([1]; irradiated with UV light (365 nm) before and during the assay, cis-enriched, read-out: CKIα IC50, light) [µM] | fold difference in CKIα inhibition between dark and UV-irradiated sample ([1]; trans vs cis-enriched (365 nm), 5 is stronger under light, the others weaker) [fold] | SMILES | IC50 [1, 4] [µM] | chemical stability (reduction or oxidation of the azo group) [2] | potency relative to longdaysin ([1]; CKI activity) | fold difference in CKIα IC50 between trans-form and cis-isomer ([1]; green light 530 nm vs dark) [fold] | IC50 ([1]; pre-irradiated with green light (530 nm), 86% cis, read-out: CKIα IC50, 530 nm) [µM] | ratio of CKIδ IC50 of cis-isomer to trans-isomer [3] [times]
24 | 8 | Cc1nn(C)c(C)c1/N=N/c1cccc(CNc2ncnc3c2ncn3C(C)C)c1 [Compound 8] | 3 | Products of reduction or oxidation were not observed; also recorded: no observable reduction or oxidation |  |  |  | 
 |  | CC(C)n1cnc2c(NCc3ccc(F)c(/N=N/c4c(F)cccc4F)c3F)ncnc21 [Compound 9] | 5.3 | Products of reduction or oxidation were not | comparable to that of longdaysin | 1.5 | 8.2 | 3.7
